Source: patent US20240092835A1, “NOVEL PEPTIDES CAPABLE OF ALTERING NK CELL ACTIVITY” (Massachusetts Institute of Technology, priority 2022, published 2024)

Key:
[1] = test system: NKG2A+/NKG2C− NK cells; assay: NK cell activation markers in NKG2A+/NKG2C- NK cells incubated with peptide and K562 expressing HLA-E (inhibition); format: cell-based, human; conditions: for effect on NKG2A+/NKG2C− NK cell inhibition (in words): K562 expressing HLA-E, CD107a, IFNG, TNF, CCL3; for percentage of CCL3+ NK cells / percentage of CD107a+ NK cells / percentage of IFNG+ NK cells / percentage of TNF+ NK cells: NKG2A+/NKG2C- NK cells, K562/HLA-E
How it was run: (§1)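 Percent-positive cells for NK activation surface markers were measured after NK cells met peptide-treated K562 cells expressing HLA-E. A decrease in that fraction was scored as inhibition and an increase as activation; NKG2A−/NKG2C− cells served as controls.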

[2] = test system: NKG2A−/NKG2C+ NK cells; assay: NK cell activation markers in NKG2A-/NKG2C+ NK cells incubated with peptide and K562 expressing HLA-E (activation); format: cell-based, human; conditions: for effect on NKG2A−/NKG2C+ NK cell activation (in words): K562 expressing HLA-E, CD107a, IFNG, TNF, CCL3; for percentage of CCL3+ NK cells / percentage of CD107+ NK cells / percentage of IFNG+ NK cells / percentage of TNF+ NK cells: NKG2A-/NKG2C+ NK cells, K562/HLA-E
How it was run: as §1

[3] = test system: NKG2A−/NKG2C− NK cells; assay: NK cell activation markers in control NKG2A-/NKG2C- NK cells incubated with peptide and K562 expressing HLA-E; format: cell-based, human
How it was run: as §1

[4] = target: T1, HLA-E (Homo sapiens, UniProt P13747); assay: HLA-E surface stabilization assay with RMA-S/HLA-E cells; format: cell-based; conditions: 30 μM peptide, 16 hours; for HLA-E surface expression stability (GeoMFI): anti-HLA-E antibody; for HLA-E surface expression stabilization strength, approximate GeoMFI: approximate value
T1 construct: expressed in transfected cells; host or cells: RMA-S/HLA-E cells (antigen processing-defective lymphoma cell line)
Procedure: HLA-E surface expression was assessed by measuring geometric mean fluorescence intensity (GeoMFI) in RMA-S cells following immunofluorescence staining with an anti-HLA-E antibody (Table 14). Increased GeoMFI was indicative of increased HLA-E surface expression stability following novel peptide exposures (FIG. 3).

T1 sequence (P13747 22-358): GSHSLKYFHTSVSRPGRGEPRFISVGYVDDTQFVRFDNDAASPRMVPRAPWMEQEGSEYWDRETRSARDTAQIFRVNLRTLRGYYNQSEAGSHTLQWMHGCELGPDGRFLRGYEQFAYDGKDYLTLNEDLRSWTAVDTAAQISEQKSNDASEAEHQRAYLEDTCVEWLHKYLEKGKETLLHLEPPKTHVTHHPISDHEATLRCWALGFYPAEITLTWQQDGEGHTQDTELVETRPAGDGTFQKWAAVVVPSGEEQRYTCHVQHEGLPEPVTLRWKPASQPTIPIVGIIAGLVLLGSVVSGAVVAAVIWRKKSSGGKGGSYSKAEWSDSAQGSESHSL
T1 sequence (P61769 21-119 partner): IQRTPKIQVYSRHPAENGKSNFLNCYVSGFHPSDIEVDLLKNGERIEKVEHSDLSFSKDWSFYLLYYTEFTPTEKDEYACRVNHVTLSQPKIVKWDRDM

ILTDRSLWL [human4, peptide FBXO41 670-678 derived from the human proteome]
effect on NKG2A+/NKG2C− NK cell inhibition (in words) [1]: mild inhibitory effects | percentage of CCL3+ NK cells ([1]; Trial 1): 35.5% | percentage of CD107a+ NK cells ([1]; Trial 1): 16.9% | percentage of IFNG+ NK cells ([1]; Trial 1): 5.47% | percentage of TNF+ NK cells ([1]; Trial 1): 1.97% | percentage of CCL3+ NK cells ([1]; Trial 2): 56.4% | percentage of CD107a+ NK cells ([1]; Trial 2): 23.7% | percentage of IFNG+ NK cells ([1]; Trial 2): 8.81% | percentage of TNF+ NK cells ([1]; Trial 2): 4.06% | percentage of CCL3+ NK cells ([1]; Trial 3): 34.7% | percentage of CD107a+ NK cells ([1]; Trial 3): 22% | percentage of IFNG+ NK cells ([1]; Trial 3): 13.3% | percentage of TNF+ NK cells ([1]; Trial 3): 7.29% | percentage of CCL3+ NK cells ([1]; Trial 4): 16.1% | percentage of CD107a+ NK cells ([1]; Trial 4): 15% | percentage of IFNG+ NK cells ([1]; Trial 4): 3.31% | percentage of TNF+ NK cells ([1]; Trial 4): 2.82% | percentage of CCL3+ NK cells ([1]; Trial 5): 32.7% | percentage of CD107a+ NK cells ([1]; Trial 5): 14.8% | percentage of IFNG+ NK cells ([1]; Trial 5): 6.82% | percentage of TNF+ NK cells ([1]; Trial 5): 3.39% | percentage of CCL3+ NK cells ([1]; Trial 6): 13.4% | percentage of CD107a+ NK cells ([1]; Trial 6): 12.8% | percentage of IFNG+ NK cells ([1]; Trial 6): 3.02% | percentage of TNF+ NK cells ([1]; Trial 6): 2.79% | effect on NKG2A−/NKG2C+ NK cell activation (in words) [2]: strong activating effects | percentage of CCL3+ NK cells ([2]; Trial 1): 77.9% | percentage of CD107+ NK cells ([2]; Trial 1): 76.7% | percentage of IFNG+ NK cells ([2]; Trial 1): 62.2% | percentage of TNF+ NK cells ([2]; Trial 1): 49.6% | percentage of CCL3+ NK cells ([2]; Trial 2): 87.9% | percentage of CD107+ NK cells ([2]; Trial 2): 79.5% | percentage of IFNG+ NK cells ([2]; Trial 2): 70.5% | percentage of TNF+ NK cells ([2]; Trial 2): 57.3% | percentage of CCL3+ NK cells ([2]; Trial 3): 84.4% | percentage of CD107+ NK cells ([2]; Trial 3): 84.8% | percentage of IFNG+ NK cells ([2]; Trial 3): 75.9% | percentage of TNF+ NK cells ([2]; Trial 3): 65.5% | percentage of CCL3+ NK cells ([2]; Trial 4): 74% | percentage of CD107+ NK cells ([2]; Trial 4): 73.4% | percentage of IFNG+ NK cells ([2]; Trial 4): 66.6% | percentage of TNF+ NK cells ([2]; Trial 4): 57.4% | percentage of CCL3+ NK cells ([2]; Trial 5): 81.2% | percentage of CD107+ NK cells ([2]; Trial 5): 77.9% | percentage of IFNG+ NK cells ([2]; Trial 5): 70.4% | percentage of TNF+ NK cells ([2]; Trial 5): 64.7% | percentage of CCL3+ NK cells ([2]; Trial 6): 64.6% | percentage of CD107+ NK cells ([2]; Trial 6): 64.2% | percentage of IFNG+ NK cells ([2]; Trial 6): 54% | percentage of TNF+ NK cells ([2]; Trial 6): 43% | percentage CCL3+ NK cells ([3]; Trial 1): 37.2% | percentage CD107+ NK cells ([3]; Trial 1): 27.2% | percentage TNF+ NK cells ([3]; Trial 1): 3.99% | percentage of IFNG+ NK cells ([3]; Trial 1): 15.4% | percentage CCL3+ NK cells ([3]; Trial 2): 56.3% | percentage CD107+ NK cells ([3]; Trial 2): 33.5% | percentage TNF+ NK cells ([3]; Trial 2): 7.5% | percentage of IFNG+ NK cells ([3]; Trial 2): 20.8% | percentage CCL3+ NK cells ([3]; Trial 3): 48.3% | percentage CD107+ NK cells ([3]; Trial 3): 44% | percentage TNF+ NK cells ([3]; Trial 3): 13.8% | percentage of IFNG+ NK cells ([3]; Trial 3): 33.7% | percentage CCL3+ NK cells ([3]; Trial 4): 35.9% | percentage CD107+ NK cells ([3]; Trial 4): 32.1% | percentage TNF+ NK cells ([3]; Trial 4): 10.2% | percentage of IFNG+ NK cells ([3]; Trial 4): 19.3% | percentage CCL3+ NK cells ([3]; Trial 5): 25% | percentage CD107+ NK cells ([3]; Trial 5): 19.2% | percentage TNF+ NK cells ([3]; Trial 5): 5.02% | percentage of IFNG+ NK cells ([3]; Trial 5): 13.7% | percentage CCL3+ NK cells ([3]; Trial 6): 25.1% | percentage CD107+ NK cells ([3]; Trial 6): 22.6% | percentage TNF+ NK cells ([3]; Trial 6): 5.37% | percentage of IFNG+ NK cells ([3]; Trial 6): 12.1% | HLA-E surface expression stability (GeoMFI) ([4]; Trial 1): 1174 GeoMFI | HLA-E surface expression stability (GeoMFI) ([4]; Trial 2): 921 GeoMFI | HLA-E surface expression stability (GeoMFI) ([4]; Trial 3): 887 GeoMFI | HLA-E surface expression stability (GeoMFI) ([4]; Trial 4): 1378 GeoMFI | HLA-E surface expression stabilization strength, approximate GeoMFI [4]: approximately 1×10^3 GeoMFI

FLPNRSLLF [human8, peptide SLC52A3 354-362 derived from the human proteome]
effect on NKG2A+/NKG2C− NK cell inhibition (in words) [1]: mild inhibitory effects | percentage of CCL3+ NK cells ([1]; Trial 1): 39.5% | percentage of CD107a+ NK cells ([1]; Trial 1): 19.1% | percentage of IFNG+ NK cells ([1]; Trial 1): 5.56% | percentage of TNF+ NK cells ([1]; Trial 1): 1.84% | percentage of CCL3+ NK cells ([1]; Trial 2): 56% | percentage of CD107a+ NK cells ([1]; Trial 2): 26.4% | percentage of IFNG+ NK cells ([1]; Trial 2): 10.5% | percentage of TNF+ NK cells ([1]; Trial 2): 4.8% | percentage of CCL3+ NK cells ([1]; Trial 3): 38.2% | percentage of CD107a+ NK cells ([1]; Trial 3): 27.5% | percentage of IFNG+ NK cells ([1]; Trial 3): 14.7% | percentage of TNF+ NK cells ([1]; Trial 3): 6.96% | percentage of CCL3+ NK cells ([1]; Trial 4): 32.8% | percentage of CD107a+ NK cells ([1]; Trial 4): 28.2% | percentage of IFNG+ NK cells ([1]; Trial 4): 12.7% | percentage of TNF+ NK cells ([1]; Trial 4): 7.59% | percentage of CCL3+ NK cells ([1]; Trial 5): 33.3% | percentage of CD107a+ NK cells ([1]; Trial 5): 17.7% | percentage of IFNG+ NK cells ([1]; Trial 5): 7.1% | percentage of TNF+ NK cells ([1]; Trial 5): 3.6% | percentage of CCL3+ NK cells ([1]; Trial 6): 27.1% | percentage of CD107a+ NK cells ([1]; Trial 6): 20% | percentage of IFNG+ NK cells ([1]; Trial 6): 6.74% | percentage of TNF+ NK cells ([1]; Trial 6): 4.07% | effect on NKG2A−/NKG2C+ NK cell activation (in words) [2]: strong activating effects | percentage of CCL3+ NK cells ([2]; Trial 1): 75.5% | percentage of CD107+ NK cells ([2]; Trial 1): 73.7% | percentage of IFNG+ NK cells ([2]; Trial 1): 58.6% | percentage of TNF+ NK cells ([2]; Trial 1): 45.1% | percentage of CCL3+ NK cells ([2]; Trial 2): 89% | percentage of CD107+ NK cells ([2]; Trial 2): 82.1% | percentage of IFNG+ NK cells ([2]; Trial 2): 74.8% | percentage of TNF+ NK cells ([2]; Trial 2): 64% | percentage of CCL3+ NK cells ([2]; Trial 3): 84.1% | percentage of CD107+ NK cells ([2]; Trial 3): 84.3% | percentage of IFNG+ NK cells ([2]; Trial 3): 74.5% | percentage of TNF+ NK cells ([2]; Trial 3): 63.7% | percentage of CCL3+ NK cells ([2]; Trial 4): 65.3% | percentage of CD107+ NK cells ([2]; Trial 4): 64.8% | percentage of IFNG+ NK cells ([2]; Trial 4): 54% | percentage of TNF+ NK cells ([2]; Trial 4): 43.7% | percentage of CCL3+ NK cells ([2]; Trial 5): 74.6% | percentage of CD107+ NK cells ([2]; Trial 5): 70.7% | percentage of IFNG+ NK cells ([2]; Trial 5): 62.3% | percentage of TNF+ NK cells ([2]; Trial 5): 57.1% | percentage of CCL3+ NK cells ([2]; Trial 6): 57% | percentage of CD107+ NK cells ([2]; Trial 6): 53.1% | percentage of IFNG+ NK cells ([2]; Trial 6): 43.8% | percentage of TNF+ NK cells ([2]; Trial 6): 31.7% | percentage CCL3+ NK cells ([3]; Trial 1): 33.5% | percentage CD107+ NK cells ([3]; Trial 1): 27.7% | percentage TNF+ NK cells ([3]; Trial 1): 4.82% | percentage of IFNG+ NK cells ([3]; Trial 1): 14.7% | percentage CCL3+ NK cells ([3]; Trial 2): 60.3% | percentage CD107+ NK cells ([3]; Trial 2): 36.2% | percentage TNF+ NK cells ([3]; Trial 2): 10.5% | percentage of IFNG+ NK cells ([3]; Trial 2): 28.8% | percentage CCL3+ NK cells ([3]; Trial 3): 52.4% | percentage CD107+ NK cells ([3]; Trial 3): 47.3% | percentage TNF+ NK cells ([3]; Trial 3): 16.5% | percentage of IFNG+ NK cells ([3]; Trial 3): 38% | percentage CCL3+ NK cells ([3]; Trial 4): 32% | percentage CD107+ NK cells ([3]; Trial 4): 28.6% | percentage TNF+ NK cells ([3]; Trial 4): 9.61% | percentage of IFNG+ NK cells ([3]; Trial 4): 18.6% | percentage CCL3+ NK cells ([3]; Trial 5): 29.2% | percentage CD107+ NK cells ([3]; Trial 5): 20.2% | percentage TNF+ NK cells ([3]; Trial 5): 6.07% | percentage of IFNG+ NK cells ([3]; Trial 5): 14.2% | percentage CCL3+ NK cells ([3]; Trial 6): 24.8% | percentage CD107+ NK cells ([3]; Trial 6): 19.3% | percentage TNF+ NK cells ([3]; Trial 6): 3.78% | percentage of IFNG+ NK cells ([3]; Trial 6): 10.9% | HLA-E surface expression stability (GeoMFI) ([4]; Trial 1): 1066 GeoMFI | HLA-E surface expression stability (GeoMFI) ([4]; Trial 2): 813 GeoMFI | HLA-E surface expression stability (GeoMFI) ([4]; Trial 3): 1049 GeoMFI | HLA-E surface expression stability (GeoMFI) ([4]; Trial 4): 1654 GeoMFI | HLA-E surface expression stabilization strength, approximate GeoMFI [4]: approximately 1×10^3 GeoMFI
